Measurements taken from patent publication US20240287080A1 (IDEAYA Biosciences Inc., priority 2021, published 2024).

The molecules below were run against T1, Pol theta (1-899) (Homo sapiens, UniProt O75417) (assay: Pol theta ATPase activity, NADH oxidation-coupled enzymatic assay (ATPase NADH coupling: Standard Screening: hPolQ)). Settings: Pol theta (1-899) 5 nM, NADH oxidation-coupled ATPase assay; compounds of Table 3.
T1 construct: Pol theta (1-899) (5 nM) in assay buffer
T1 sequence (O75417 1-899): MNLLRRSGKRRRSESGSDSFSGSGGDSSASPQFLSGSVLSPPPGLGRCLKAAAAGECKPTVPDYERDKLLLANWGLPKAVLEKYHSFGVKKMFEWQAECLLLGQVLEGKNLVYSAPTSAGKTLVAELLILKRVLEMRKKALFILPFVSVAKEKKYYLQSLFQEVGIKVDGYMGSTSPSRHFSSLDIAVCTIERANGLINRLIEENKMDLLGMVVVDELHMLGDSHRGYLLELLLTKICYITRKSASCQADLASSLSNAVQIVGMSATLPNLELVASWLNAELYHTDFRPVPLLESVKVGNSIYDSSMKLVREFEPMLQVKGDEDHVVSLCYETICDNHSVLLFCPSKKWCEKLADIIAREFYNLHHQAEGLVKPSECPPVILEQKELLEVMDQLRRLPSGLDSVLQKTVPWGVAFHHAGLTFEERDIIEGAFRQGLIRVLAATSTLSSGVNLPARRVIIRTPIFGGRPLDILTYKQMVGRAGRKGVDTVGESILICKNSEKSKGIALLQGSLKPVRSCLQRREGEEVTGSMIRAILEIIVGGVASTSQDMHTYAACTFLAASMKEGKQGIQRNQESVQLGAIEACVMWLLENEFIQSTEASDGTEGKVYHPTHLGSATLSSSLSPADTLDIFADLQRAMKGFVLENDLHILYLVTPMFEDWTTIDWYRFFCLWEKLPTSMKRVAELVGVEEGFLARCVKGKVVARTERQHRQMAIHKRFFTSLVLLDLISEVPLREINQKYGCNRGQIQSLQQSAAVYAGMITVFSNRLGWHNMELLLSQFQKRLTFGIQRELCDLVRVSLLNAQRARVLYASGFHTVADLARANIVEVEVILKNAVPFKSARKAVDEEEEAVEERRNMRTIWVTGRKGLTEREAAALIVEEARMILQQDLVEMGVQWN
Type: biochemical
Method in brief: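 NADH-coupled ATPase readout: 5 nM Pol theta (1-899) preincubated 15 min with 10-point compound series in Tris pH 7.80, KCl, MgCl2, DTT, BSA, Tween, glycerol, then 100 μM ATP, 300 nM 50-mer poly-dT ssDNA, NADH, PEP, LDH and PK added (stock levels). A340 followed 60 min; slopes fit four-parameter for IC50.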
`COc1cnc(Cl)cc1-c1cc(C)ncc1C(=O)Nc1nnc(OC2CCN(CC(F)(F)F)CC2)s1` [Example 278, 2′-chloro-5′-methoxy-6-methyl-N-(5-((1-(2,2,2-trifluoroethyl)piperidin-4-yl)oxy)-1,3,4-thiadiazol-2-yl)-[4,4′-bipyridine]-3-carboxamide] was tested, and the IC50 was 200 to 500 nM. For `CNC(=O)c1ccc(-c2cc(C)ncc2C(=O)Nc2nnc(OC)s2)cn1` [Example 479, N3′-(5-methoxy-1,3,4-thiadiazol-2-yl)-N6,6′-dimethyl-[3,4′-bipyridine]-3′,6-dicarboxamide], the IC50 was 1000 to 10000 nM. With `COc1nnc(NC(=O)c2cnc(C)cc2-c2cccc3ccccc23)s1` [Example 398, N-(5-methoxy-1,3,4-thiadiazol-2-yl)-6-methyl-4-(naphthalen-1-yl)pyridine-3-carboxamide] the IC50 was ≤ 200 nM. `COc1nnc(NC(=O)c2cnc(C)cc2-c2ccc(C)cc2C)s1` [Example 386, 4-(2,4-dimethylphenyl)-N-(5-methoxy-1,3,4-thiadiazol-2-yl)-6-methylpyridine-3-carboxamide] gave an IC50 of 500 to 1000 nM. `COc1nnc(NC(=O)c2cnc(C)cc2-c2cc[nH]c(=O)c2)s1` [Example 364, N-(5-methoxy-1,3,4-thiadiazol-2-yl)-6-methyl-2′-oxo-1′,2′-dihydro-[4,4′-bipyridine]-3-carboxamide] showed an IC50 of 1000 to 10000 nM. With `COc1cnc(Cl)cc1-c1cc(C)ncc1C(=O)Nc1nnc(O[C@@H]2CC[C@@]23CCOC3)s1` (racemic) [Example 295, rac-N-(5-(((1R,4S)-6-oxaspiro[3.4]octan-1-yl)oxy)-1,3,4-thiadiazol-2-yl)-2′-chloro-5′-methoxy-6-methyl-[4,4′-bipyridine]-3-carboxamide] the IC50 was ≤ 200 nM. In the case of `COc1cnc(Cl)cc1-c1cc(C)ncc1C(=O)Nc1nnc(OC2(C3CCOC3)CC2)s1` (centres unmarked) [Example 288, 2′-chloro-5′-methoxy-6-methyl-N-(5-(1-(tetrahydrofuran-3-yl)cyclopropoxy)-1,3,4-thiadiazol-2-yl)-[4,4′-bipyridine]-3-carboxamide], the IC50 is reported as ≤ 200 nM. For `COc1nnc(NC(=O)c2cnc(C)cc2-c2cc(Cl)c(S(C)(=O)=O)cc2OC)s1` [Example 272, 4-(5-chloro-2-methoxy-4-(methylsulfonyl)phenyl)-N-(5-methoxy-1,3,4-thiadiazol-2-yl)-6-methylnicotinamide], the IC50 was ≤ 200 nM.

Same assay, conditions: Table 4; Pol theta (1-899) 5 nM, ATP, dT50 ssDNA
For `COc1nnc(NC(=O)c2cnc(C)cc2-c2cc(C)ccc2OC)s1` [Example 30, N-(5-methoxy-1,3,4-thiadiazol-2-yl)-4-(2-methoxy-5-methylphenyl)-6-methylnicotinamide], the IC50 was ≤ 200 nM. `COc1cnc(Cl)cc1-c1cc(C)ncc1C(=O)Nc1nnc(O[C@H]2CC[C@H](O)CC2)s1` (single isomer, unassigned) [Example 27, 2′-chloro-N-(5-(((1r,4r)-4-hydroxycyclohexyl)oxy)-1,3,4-thiadiazol-2-yl)-5′-methoxy-6-methyl-[4,4′-bipyridine]-3-carboxamide] was tested, and the IC50 was ≤ 200 nM.

Same assay, conditions: Table 5; Pol theta (1-899) 5 nM, ATP, dT50 ssDNA
In the case of `COc1cnc(C)c(F)c1-c1cc(C)ncc1C(=O)Nc1nnc(O[C@@H]2C[C@H]3CC[C@@H]2O3)s1` (single isomer, unassigned) [Example 218], the IC50 is reported as ≤ 200 nM. For `Cc1cc(-c2cc(Br)ncc2OC(F)F)c(C(=O)Nc2nnc(O[C@@H]3CCOC3)s2)cn1` [Example 195, (R)-2′-bromo-5′-(difluoromethoxy)-6-methyl-N-(5-((tetrahydrofuran-3-yl)oxy)-1,3,4-thiadiazol-2-yl)-(4,4′-bipyridine)-3-carboxamide], the IC50 was ≤ 200 nM. In the case of `COc1cnc(Cl)cc1-c1cc(C)ncc1C(=O)Nc1nnc(O[C@@H]2CCC[C@H](OC)C2)s1` (single isomer, unassigned) [Example 146], the IC50 is reported as ≤ 200 nM. In the case of `COc1cnc(Cl)cc1-c1cc(C)ncc1C(=O)Nc1nnc(OC2CCCC2OC)s1` (centres unmarked) [Example 163, 2′-chloro-5′-methoxy-N-(5-((2-methoxycyclopentyl)oxy)-1,3,4-thiadiazol-2-yl)-6-methyl-(4,4′-bipyridine)-3-carboxamide], the IC50 is reported as ≤ 200 nM.
